Test [1] relates to patients with inadequately managed, severe chronic low back pain with or without a neuropathic pain component. Nature of the test: Patient Global Impression of Change (PGIC), same trial. In kind it is in vivo, human patients. From the text: This was a multicenter, multinational, open-label, effectiveness phase IIIb trial to evaluate effectiveness and safety of tapentadol prolonged release treatment in patients with inadequately managed, severe chronic low back pain with or without a neuropathic pain component. Patients taking WHO Step II analgesics discontinued those analgesics before starting study medication; patients taking Step I analgesics and/or centrally acting co-analgesics continued on the same dose. […] All patients received tapentadol prolonged release (50-250 mg bid) for up to 12 weeks (5-week titration period and a 7-week maintenance period). Tapentadol immediate release (IR) 50 mg (twice a day, hours apart) was permitted (combined total daily dose of tapentadol prolonged release and tapentadol IR, 500 mg/day). The primary efficacy endpoint was the change from Baseline to Week 6 (when tapentadol prolonged release doses were stable) in average pain intensity on the 11-point NRS-3 using the last observation carried forward (LOCF) for imputing missing scores. The painDETECT questionnaire was used to evaluate the likelihood of a neuropathic pain component of low back pain; patients were classified as painDETECT “negative,” “unclear,” or “positive.” The population of patients classified as painDETECT negative was limited to approximately 30% of the total population.
All subjects completed Short Form-36 (SF-36) and EuroQol-5 Dimension (EQ-5D) questionnaires and the Hospital Anxiety and Depression Scale (HADS). The Patient Global Impression of Change (PGIC) and Clinical global impression of change (CGIC) were also used as secondary endpoints. For both tests, patients completed the statement, “since I began trial treatment, I would rate my overall condition as,” using 7 possible responses (“very much worse” to “very much improved”). Adverse events were recorded throughout the trial.

Test [2] has the same test system. The experiment in a line: EuroQol-5 Dimension (EQ-5D) health status index score, same trial. In kind it is in vivo, human patients. The conditions noted are these: Baseline to Week 12. From the text: This was a multicenter, multinational, open-label, effectiveness phase IIIb trial to evaluate effectiveness and safety of tapentadol prolonged release treatment in patients with inadequately managed, severe chronic low back pain with or without a neuropathic pain component. Patients taking WHO Step II analgesics discontinued those analgesics before starting study medication; patients taking Step I analgesics and/or centrally acting co-analgesics continued on the same dose. […] All patients received tapentadol prolonged release (50-250 mg bid) for up to 12 weeks (5-week titration period and a 7-week maintenance period). Tapentadol immediate release (IR) 50 mg (twice a day, hours apart) was permitted (combined total daily dose of tapentadol prolonged release and tapentadol IR, 500 mg/day). The primary efficacy endpoint was the change from Baseline to Week 6 (when tapentadol prolonged release doses were stable) in average pain intensity on the 11-point NRS-3 using the last observation carried forward (LOCF) for imputing missing scores. […]
All subjects completed Short Form-36 (SF-36) and EuroQol-5 Dimension (EQ-5D) questionnaires and the Hospital Anxiety and Depression Scale (HADS). […] Adverse events were recorded throughout the trial.

For the compound `CC[C@@H](c1cccc(O)c1)[C@@H](C)CN(C)C` [tapentadol, (−)-(1R,2R)-3-(3-dimethylamino-1-ethyl-2-methyl-propyl)-phenol], the “percentage of patients reporting “very much improved” or “much improved” on the PGIC” value in test [1] (Week 1 (26/172)) is reported as 15.1%; in test [1] (Week 6 (67/138)) it was 48.6%; in test [1] (Week 12 (61/91)), 67.1%. Moreover, the “mean (SD) change in the EQ-5D health status index score” value was 0.18 in test [2] (patients painDETECT negative, P=0.0022) and 0.36 (0.32) in test [2] (patients painDETECT positive, P<0.0001).
